Patent publication US20240067662A1, “KRAS INHIBITORS” (Bristol-Myers Squibb Company, priority 2022, published 2024)
pIC50: −log10 of the molar value.

Molecular target: GMPPNP-loaded KRAS G12C (Homo sapiens, UniProt P01116, G12C)
Experiment: KRAS G12C RAF Disruption Assay (HTRF)
Type: biochemical
Settings: recombinant GMPPNP-loaded KRAS G12C (5 nM), 20 min with compound; GST-RAF1 RBD (9 nM); HTRF signal; read-out: KRASG12C RAF Disruption Assay (IC50)
Protocol: KRAS^G12C RAF Disruption Assay
This is a functional assay that measures activity of compounds against KRAS-G12C^(ON), i.e., the active form of KRAS G12C. Recombinant GMPPNP-loaded KRAS G12C (5 nM) was treated with compound at room temperature for 20 minutes in assay buffer (50 mM Tris pH 7.5, 100 mM NaCl, 1 mM MgCl2, 1 mM DTT, 100ug/ml BSA). Recombinant GST-RAF1 RBD (9 nM) was added, and the reaction mixture was incubated for 20 minutes. SA-Tb (0.25 nM) was added, and the reaction mixture was incubated for 3 hours. HTRF signal was measured (PerkinElmer Envision), the signal ratio (λem 520/λem 495) was calculated, and IC50 values were calculated from the dose-response curve.

GMPPNP-loaded KRAS G12C, sequence (P01116 1-188 isoform P01116-2 G12C): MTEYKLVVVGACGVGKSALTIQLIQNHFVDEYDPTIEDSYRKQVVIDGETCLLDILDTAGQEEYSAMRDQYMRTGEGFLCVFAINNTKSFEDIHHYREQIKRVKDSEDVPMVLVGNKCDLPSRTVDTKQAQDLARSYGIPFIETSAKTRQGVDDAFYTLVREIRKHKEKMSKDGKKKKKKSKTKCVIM

SMILES	pIC50
N#CC[C@H]1CN(c2nc(OC[C@@]34CCCN3C[C@H](F)C4)nc3c(F)c(N4CCOc5cccc(F)c54)ncc23)CCN1C(=O)/C(F)=C/c1ccccn1 [Example 60, 2-((S)-1-((Z)-2-fluoro-3-(pyridin-2-yl)acryloyl)-4-(8-fluoro-7-(5-fluoro-2,3-dihydro-4H-benzo[b][1,4]oxazin-4-yl)-2-(((2R, 7aS)-2-fluorotetrahydro-1H-pyrrolizin-7a(5H)-yl)methoxy)pyrido[4,3-d]pyrimidin-4-yl)piperazin-2-yl)acetonitrile]	6.74
C#Cc1cccc2cccc(-c3ncc4c(N(C)C5CCN(C(=O)/C(F)=C/c6ccccn6)CC5)nc(OC[C@@]56CCCN5C[C@H](F)C6)nc4c3F)c12 [Compound 131, (Z)-1-(4-((7-(8-ethynylnaphthalen-1-yl)-8-fluoro-2-(((2R, 7aS)-2-fluorotetrahydro-1H-pyrrolizin-7a(5H)-yl)methoxy)pyrido[4,3-d]pyrimidin-4-yl)(methyl)amino)piperidin-1-yl)-2-fluoro-3-(pyridin-2-yl)prop-2-en-1-one]	5.38
C#Cc1cccc2cccc(-c3ncc4c(N5CCC6(CCN6C(=O)/C(F)=C/c6nccs6)C5)nc(OC[C@@]56CCCN5C[C@H](F)C6)nc4c3F)c12 (single isomer, unassigned) [Compound 103]	6.21
C#Cc1c(F)ccc2cc(O)cc(-c3ncc4c(N5C[C@H]6CC[C@@H](C5)N6C(=O)/C(F)=C/c5ccccn5)nc(OC[C@@]56CCCN5C[C@H](F)C6)nc4c3F)c12 [Compound 2, (Z)-1-((1R, 5S)-3-(7-(8-ethynyl-7-fluoro-3-hydroxynaphthalen-1-yl)-8-fluoro-2-(((2R, 7aS)-2-fluorotetrahydro-1H-pyrrolizin-7a(5H)-yl)methoxy)pyrido[4,3-d]pyrimidin-4-yl)-3,8-diazabicyclo[3.2.1]octan-8-yl)-2-fluoro-3-(pyridin-2-yl)prop-2-en-1-one]	7.49
Cn1ncc2cccc(-c3ncc4c(N5CCN(C(=O)/C(F)=C/c6ccccn6)[C@@H](CC#N)C5)nc(OC[C@@]56CCCN5C[C@H](F)C6)nc4c3F)c21 [Example 51, 2-((S)-4-(8-fluoro-2-(((2R, 7aS)-2-fluorotetrahydro-1H-pyrrolizin-7a(5H)-yl)methoxy)-7-(1-methyl-1H-indazol-7-yl)pyrido[4,3-d]pyrimidin-4-yl)-1-((Z)-2-fluoro-3-(pyridin-2-yl)acryloyl)piperazin-2-yl)acetonitrile]	6.44
N#CC[C@H]1CN(c2nc(OC[C@@]34CCCN3C[C@H](F)C4)nc3c(F)c(-c4cc(F)ccc4C(F)F)ncc23)CCN1C(=O)/C(F)=C/c1ccccn1 [Example 42, 2-((S)-4-(7-(2-(difluoromethyl)-5-fluorophenyl)-8-fluoro-2-(((2R, 7aS)-2-fluorotetrahydro-1H-pyrrolizin-7a(5H)-yl)methoxy)pyrido[4,3-d]pyrimidin-4-yl)-1-((Z)-2-fluoro-3-(pyridin-2-yl)acryloyl)piperazin-2-yl)acetonitrile]	6.12
N#Cc1c(N)sc2c(F)ccc(-c3ncc4c(N5CCN(C(=O)/C(F)=C/c6nccs6)CC5)nc(OC[C@@]56CCCN5C[C@H](F)C6)nc4c3F)c12 [Compound 122, 2-amino-7-fluoro-4-(8-fluoro-4-(4-((Z)-2-fluoro-3-(thiazol-2-yl)acryloyl)piperazin-1-yl)-2-(((7aS)-2-fluorotetrahydro-1H-pyrrolizin-7a(5H)-yl)methoxy)pyrido[4,3-d]pyrimidin-7-yl)benzo[b]thiophene-3-carbonitrile]	8.22
C#Cc1cccc2cccc(-c3ncc4c(N(C)C5CCN(C(=O)/C(F)=C/c6nccs6)CC5)nc(OC[C@@]56CCCN5C[C@H](F)C6)nc4c3F)c12 [Compound 132, (Z)-1-(4-((7-(8-ethynylnaphthalen-1-yl)-8-fluoro-2-(((2R, 7aS)-2-fluorotetrahydro-1H-pyrrolizin-7a(5H)-yl)methoxy)pyrido[4,3-d]pyrimidin-4-yl)(methyl)amino)piperidin-1-yl)-2-fluoro-3-(thiazol-2-yl)prop-2-en-1-one]	4.77
C#Cc1c(F)ccc2cc(O)cc(-c3ncc4c(N5C[C@H]6CC[C@@H](C5)N6C(=O)/C(F)=C/c5cccc(COC)n5)nc(OC[C@@]56CCCN5C[C@H](F)C6)nc4c3F)c12 [Compound 15, (Z)-1-((1R, 5S)-3-(7-(8-ethynyl-7-fluoro-3-hydroxynaphthalen-1-yl)-8-fluoro-2-(((2R, 7aS)-2-fluorotetrahydro-1H-pyrrolizin-7a(5H)-yl)methoxy)pyrido[4,3-d]pyrimidin-4-yl)-3,8-diazabicyclo[3.2.1]octan-8-yl)-2-fluoro-3-(6-(methoxymethyl)pyridin-2-yl)prop-2-en-1-one]	7.22
N#CC[C@H]1CN(c2nc(OC[C@@]34CCCN3C[C@H](F)C4)nc3c(F)c(-c4cc(F)ccc4F)ncc23)CCN1C(=O)/C(F)=C/c1nccs1 [Example 41, 2-((S)-4-(7-(2,5-difluorophenyl)-8-fluoro-2-(((2R, 7aS)-2-fluorotetrahydro-1H-pyrrolizin-7a(5H)-yl)methoxy)pyrido[4,3-d]pyrimidin-4-yl)-1-((Z)-2-fluoro-3-(thiazol-2-yl)acryloyl)piperazin-2-yl)acetonitrile]	6.12
C#Cc1c(F)ccc2cccc(-c3ncc4c(N(C)[C@@H]5CCN(C(=O)/C(F)=C/c6nccs6)C5)nc(OC[C@@]56CCCN5C[C@H](F)C6)nc4c3F)c12 [Compound 118, (Z)-1-((R)-3-((7-(8-ethynyl-7-fluoronaphthalen-1-yl)-8-fluoro-2-(((2R, 7aS)-2-fluorotetrahydro-IH-pyrrolizin-7a(5H)-yl)methoxy)pyrido[4,3-d]pyrimidin-4-yl)(methyl)amino)pyrrolidin-1-yl)-2-fluoro-3-(thiazol-2-yl)prop-2-en-1-one]	7.52
C#Cc1cccc2cccc(-c3ncc4c(N(C)C5CCN(C(=O)/C(F)=C/c6nccs6)C5C)nc(OC[C@@]56CCCN5C[C@H](F)C6)nc4c3F)c12 (single isomer, unassigned) [Example 73 trans isomer 1]	5.80
C#Cc1cccc2cccc(-c3ncc4c(N(C)[C@@H]5CCN(C(=O)/C(F)=C/c6ccccn6)C5)nc(OC[C@@]56CCCN5C[C@H](F)C6)nc4c3F)c12 [Compound 115, (Z)-1-((R)-3-((7-(8-ethynylnaphthalen-1-yl)-8-fluoro-2-(((2R, 7aS)-2-fluorotetrahydro-1H-pyrrolizin-7a(5H)-yl)methoxy)pyrido[4,3-d]pyrimidin-4-yl)(methyl)amino)pyrrolidin-1-yl)-2-fluoro-3-(pyridin-2-yl)prop-2-en-1-one]	7.85
C#Cc1cccc2cccc(-c3ncc4c(N(C)C5CCN(C(=O)/C(F)=C/c6ccccn6)C5C)nc(OC[C@@]56CCCN5C[C@H](F)C6)nc4c3F)c12 (single isomer, unassigned) [Example 74 trans isomer 2]	6.96
N#CC[C@H]1CN(c2nc(OC[C@@]34CCCN3C[C@H](F)C4)nc3c(F)c(-c4cc(F)ccc4F)ncc23)CCN1C(=O)/C(F)=C/c1ccccn1 [Example 40, 2-((S)-4-(7-(2,5-difluorophenyl)-8-fluoro-2-(((2R, 7aS)-2-fluorotetrahydro-1H-pyrrolizin-7a(5H)-yl)methoxy)pyrido[4,3-d]pyrimidin-4-yl)-1-((Z)-2-fluoro-3-(pyridin-2-yl)acryloyl)piperazin-2-yl)acetonitrile]	6.06
C#Cc1cccc2cccc(-c3ncc4c(N5CCN(C(=O)/C(F)=C/c6ncccn6)CC5)nc(OC[C@@]56CCCN5C[C@H](F)C6)nc4c3F)c12 [Compound 123, (Z)-1-(4-(7-(8-ethynylnaphthalen-1-yl)-8-fluoro-2-(((2R, 7aS)-2-fluorotetrahydro-1H-pyrrolizin-7a(5H)-yl)methoxy)pyrido[4,3-d]pyrimidin-4-yl)piperazin-1-yl)-2-fluoro-3-(pyrimidin-2-yl)prop-2-en-1-one]	6.73
C#Cc1cccc2cccc(-c3ncc4c(N(C)C5CCN(C(=O)/C(F)=C/c6ccccn6)C5C)nc(OC[C@@]56CCCN5C[C@H](F)C6)nc4c3F)c12 (single isomer, unassigned) [Example 74 cis isomer 1]	6.00
Cc1ccc2[nH]ncc2c1-c1ncc2c(N3CCN(C(=O)/C(F)=C/c4ccccn4)CC3)nc(OC[C@@]34CCCN3C[C@H](F)C4)nc2c1F [Example 30, (Z)-2-fluoro-1-(4-(8-fluoro-2-(((2R, 7aS)-2-fluorotetrahydro-1H-pyrrolizin-7a(5H)-yl)methoxy)-7-(5-methyl-1H-indazol-4-yl)pyrido[4,3-d]pyrimidin-4-yl)piperazin-1-yl)-3-(pyridin-2-yl)prop-2-en-1-one]	6.33
CN(c1nc(OC[C@@]23CCCN2C[C@H](F)C3)nc2c(F)c(-c3cccc4cccc(C#N)c34)ncc12)[C@@H]1CCN(C(=O)/C(F)=C/c2ccccn2)C1 [Compound 113, 8-(8-fluoro-4-(((R)-1-((Z)-2-fluoro-3-(pyridin-2-yl)acryloyl)pyrrolidin-3-yl)(methyl)amino)-2-(((2R, 7aS)-2-fluorotetrahydro-1H-pyrrolizin-7a(5H)-yl)methoxy)pyrido[4,3-d]pyrimidin-7-yl)-1-naphthonitrile]	6.81
C#Cc1cccc2c(F)ccc(-c3ncc4c(N5CCN(C(=O)/C(F)=C/c6ncccn6)CC5)nc(OC[C@@]56CCCN5C[C@H](F)C6)nc4c3F)c12 [Compound 88, (Z)-1-(4-(7-(8-ethynyl-4-fluoronaphthalen-1-yl)-8-fluoro-2-(((2R, 7aS)-2-fluorotetrahydro-1H-pyrrolizin-7a(5H)-yl)methoxy)pyrido[4,3-d]pyrimidin-4-yl)piperazin-1-yl)-2-fluoro-3-(pyrimidin-2-yl)prop-2-en-1-one]	6.00
